Results: patent publication US9926269B2, “Beta-lactam cholesterol absorption inhibitors” (Rudjer Boskovic Institute, priority 2013, dated 2018)

What was measured:
Format in all cases: cell-based
[1] = Cytotoxicity assay (MTT cell proliferation assay), hNPC1L1/MDCKII cells; conditions: dog, MDCKII cells stably expressing human NPC1L1 (hNPC1L1/MDCKII), 72 h incubation, read-out: hNPC1L1MDCKII LC50
Description: (§1) The cells were grown at 37° C. in a humidified 5% CO2 incubator. Stable transfection of MDCKII cells with human NPC1L1 protein was performed using the Lipofectamine LTX (Invitrogen, USA) according to the manufecturer's protocol. Selection with 1000 μg/mL G418 (Sigma-Aldrich, Germany) was started 2 days after transfection. The concentration of G418 was decreased to 500 μg/mL after 14 days. Transfected cells were maintained in DMEM (Dulbecco's Modified Eagle Medium) containing 100 units/mL penicillin and 100 μg/mL streptomycin supplemented with 10% FCS and 500 μg/mL G418.
(§2) For the cytotoxicity determination, MDCKII, hNPC1L1/MDCKII and HepG2 cells were seeded in 96-well microtiter plates on day 0 at the density of 3000 cells/well. […] The compound cytotoxicity was assessed on day 4 performing the MTT cell proliferation assay (Sigma-Aldrich, Germany) which detects mitochondrial dehydrogenase activity in viable cells. (Mosmann, T. J. Immunol. Methods 1983, 65, 55.) The results are expressed as LC50 and the values for each compound were calculated from dose-response curves using linear regression analysis. Each concentration was tested in quadruplicate in three independent experiments (Table 1).

[2] = Cytotoxicity assay (MTT cell proliferation assay), HepG2 cells; conditions: human, 72 h incubation, read-out: HepG2 LC50
Description: as §1, §2

[3] = Cytotoxicity assay (MTT cell proliferation assay), MDCKII cells; conditions: dog, 72 h incubation, read-out: MDCKII LC50
Description: as §1, §2

[4] = tested on: MDCKII cells stably expressing human NPC1L1 (hNPC1L1/MDCKII); test: Cytotoxicity assay (MTT cell proliferation assay), hNPC1L1/MDCKII cells; conditions: 72 h incubation, read-out: hNPC1L1MDCKII LC50
Description: as §1, §2

| Compound | CC50 at 72 h [1] [µM] | CC50 at 72 h [2] [µM] | CC50 at 72 h [3] [µM] | CC50 [4] [µM] |
| --- | --- | --- | --- | --- |
| O=C1[C@H](NC[C@H](O)c2ccc(F)cc2)[C@@H](c2ccc(O)cc2)N1c1ccc(F)cc1 [Compound 8, (3R,4R)-3-[(2R)-2-(4-fluorophenyl)-2-hydroxyethylamino]-1-(4-fluorophenyl)-4-(4-hydroxyphenyl)azetidin-2-one] | > 100 | > 100 | > 100 | – |
| O=C(/C=C/c1ccc(F)cc1)N[C@H]1C(=O)N(c2ccc(F)cc2)[C@@H]1c1ccc(O)cc1 [Compound 3, (E)-1-[(3R,4R)-1-(4-fluorophenyl)-4-(4-hydroxyphenyl)-2-oxo-3-azetidinylamino]-3-(4-fluorophenyl)-2-propen-1-one] | – | – | – | 63.3 |
| O=C1[C@H](NCC(O)c2ccc(F)cc2)[C@@H](c2ccc(O)cc2)N1c1ccc(F)cc1 (mixture of isomers) [8/9-70/30, (3R,4R)-3-[(2R/S)-2-(4-fluorophenyl)-2-hydroxyethylamino]-1-(4-fluorophenyl)-4-(4-hydroxyphenyl)azetidin-2-one] | > 100 | > 100 | > 100 | – |
| O=C1[C@H](NC[C@@H](O)c2ccc(F)cc2)[C@@H](c2ccc(O)cc2)N1c1ccc(F)cc1 [Compound 9, (3R,4R)-3-[(2S)-2-(4-fluorophenyl)-2-hydroxyethylamino]-1-(4-fluorophenyl)-4-(4-hydroxyphenyl)azetidin-2-one] | > 100 | > 100 | > 100 | – |
